Data as given in patent US5089507A, “Heterocyclic piperidinyl compounds having analgesic effect” (Dr. L. Zambeletti SpA, priority 1988, dated 1992).
Where a name gives a salt, the structure may show the parent alone.

How the values were obtained:
Assay type in all cases: in vivo, Male Charles River mice (Swiss Strain)
[1] = system: mice (p-phenylquinone-induced abdominal writhing); test: P-phenylquinone-induced abdominal writhing test in mice; conditions: sc, 20 min pretreatment, p-phenylquinone 2 mg/Kg i.p.; for ED50: Mus musculus, 20 min, read-out: ANALGESIA M. WRITHING (GRADED) ED50
Experimental: A) P-phenylquinone-induced abdominal writhing test in mice
The methodology employed is based on that described by Sigmund et al, Proc. Soc. Exptl. Biol. 95, 729/1957, modified by Milne and Twomey, Agents and Actions, 10, 31/1980.
Male Charles River mice (Swiss Strain), 25-36 g body weight, were used. Animals were allowed food and water ad libitum and were randomized into groups of 10 prior to experimentation. Test compounds were dissolved in either distilled water or distilled water plus 0.1M AMS, and administered by the subcutaneous route in a final volume of 10 ml/Kg. Control animals received 10 ml/Kg of the appropriate vehicle alone. Following a pretreatment period of 20 min., mice were injected intraperitoneally with p-phenylquinone, 2 mg/Kg at 37° C. in a final volume of […]. […] During this period the number of abdominal writhing responses per animal were recorded where writhing consists of an intermittent contraction of the abdomen associated with hind leg extension.
The degree of antinociceptive protection afforded by the test compound was determined as the mean number of writhing responses observed in the treated group (T) expressed as a percentage of the mean number of writhing responses in the control group (C) according to the following formula:
[1-(T/C]×100% graded protection

mice (tail-flick) [2] = test: Tail-flick test in mice (quantal protection); conditions: sc, 30 min pretreatment; for ED50: Mus musculus, 0.5 h, read-out: ANALGESIA M. TAIL-FLICK (QUANTAL) ED50; for ANALGESIA M. TAIL-FLICK (QUANTAL) ED50: 30 min
Experimental: (§1) B) Tail-flick test in mice
(§2) The methodology employed is based on that described by D'Amour and Smith, J. Pharmacol. Exp. Ther. 72, 74/1941.
(§3) Male Charles River mice (Swiss Strain), 22-34 g body weight were used. Animals were allowed food and water ad libitum and were randomized into groups of 10 prior to experimentation.
Test compounds were dissolved in either distilled water or distilled water plus 0.1M AMS and administered by the subcutaneous route in a final volume of 10 ml/Kg. Control animals received 10 ml/kg of the appropriate vehicle alone. Following a pretreatment period of 30 min., the mice were again placed under the heat source and the reaction tine re-determined.
Percentage quantal protection was determined as the number of mice in which the reaction time was doubled compared to pretreatment values, expressed as a percentage of the total number of mice in the group.

mice (tail-flick) [3] = test: Duration of action, M. tail-flick (graded), % activity at MTFQ ED50; conditions: mouse, sc
Experimental: as §1, §2, §3
Test compounds were dissolved in either distilled water or distilled water plus 0.1M AMS and administered by the subcutaneous route in a final volume of 10 ml/Kg. Control animals received 10 ml/kg of the appropriate vehicle alone. Following a pretreatment period of 30 min., the mice were again placed under the heat source and the reaction tine re-determined. […]

Row | Compound | ED50 [1] [mg/kg] | ED50 (mice (tail-flick) [2]) [mg/kg] | ANALGESIA M. TAIL-FLICK (QUANTAL) % protection at 10 mg (mice (tail-flick) [2]; mouse) [%] | ANALGESIA M. TAIL-FLICK (QUANTAL) ED50 (mice (tail-flick) [2]; mouse) [mg/kg] | DURATION OF ACTION M. TAIL-FLICK (GRADED) % ACTIVITY AT MTFQ ED50, 30' (mice (tail-flick) [3]) [%] | DURATION OF ACTION M. TAIL-FLICK (GRADED) % ACTIVITY AT MTFQ ED50, 90' (mice (tail-flick) [3]) [%] | ANALGESIA M. WRITHING (GRADED) ED50 ([1]; mouse) [mg/kg] | ANALGESIA M. TAIL-FLICK (QUANTAL) % protection at 1.78 mg/Kg (mice (tail-flick) [2]; mouse, 1.78 mg/Kg) [%]
1 | O=C(Cc1ccc(Cl)c(Cl)c1)N1CCC[C@@H](O)[C@@H]1CN1CCCC1 (relative stereo) [Example 7, 1-(3,4-dichlorophenyl)acetyl-2-(pyrrolidin-1-yl)methyl-3-hydroxy piperidine hydrochloride diastereoisomer A trans] | 0.141 | 0.825 |  |  |  |  |  | 
2 | O=C(Cc1ccc(Cl)c(Cl)c1)N1CCC[C@H](O)[C@@H]1CN1CCCC1 (relative stereo) [Example 8, 1-(3,4-dichlorophenyl)acetyl-2-(pyrrolidin-1-yl)methyl-3-hydroxy piperidine hydrochloride diastereoisomer B cis] |  |  | 20 |  |  |  |  | 
3 | CC1CCCN(C(=O)Cc2ccc(Cl)c(Cl)c2)C1CN1CCCC1 (single isomer, unassigned) [Example 1, 1-(3,4-dichlorophenyl)acetyl-2-(pyrrolidin-1-yl)methyl-3-methyl piperidine hydrochloride hemihydrate diasteroisomer A] | 0.093 |  |  | 0.405 | 87 | 68 |  | 
4 | CC1CCCN(C(=O)Cc2ccc(Cl)c(Cl)c2)C1CN1CCCC1 (single isomer, unassigned) [Example 2, 1-(3,4-dichlorophenyl)acetyl-2-(pyrrolidin-1-yl)methyl-3-methyl piperidine hydrochloride diasteroisomer B] |  |  |  | 0.147 | 66 | 44 | 0.091 | 
5 | CC1CCC(CN2CCCC2)N(C(=O)Cc2ccc(Cl)c(Cl)c2)C1 (single isomer, unassigned) [Example 4, 1-(3,4-dichlorophenylacetyl)-2-(pyrrolidin-1-yl)methyl-5-methyl piperidine hydrochloride diasteroisomer A] | 0.163 | 0.749 |  |  | 80 | 54 |  | 
6 | CC1CCN(C(=O)Cc2ccc(Cl)c(Cl)c2)C(CN2CCCC2)C1 (single isomer, unassigned; diastereoisomer a) [Example 3, 1-(3,4-dichlorophenylacetyl)-2-(pyrrolidin-1-yl)methyl-4-methyl piperidine hydrochloride hemihydrate diastereoisomer A] | 0.149 | 0.202 |  |  | 86 | 17 |  | 
7 | CC1CCCC(CN2CCCC2)N1C(=O)Cc1ccc(Cl)c(Cl)c1 (single isomer, unassigned; diastereoisomer a) [Example 5, 1-(3,4-dichlorophenyl)acetyl-2-(pyrrolidin-1-yl)methyl-6-methyl piperidine hydrochloride diastereoisomer A] | 0.03 | 0.135 |  |  | 83 | 42 |  | 
8 | CC1CCCC(CN2CCCC2)N1C(=O)Cc1ccc(Cl)c(Cl)c1 (single isomer, unassigned; diastereoisomer a) [Example 6, 1-(3,4-dichlorophenyl)acetyl-2-(pyrrolidin-1-yl)methyl-6-methyl piperidine hydrochloride hemihydrate Diastereoisomer A] |  |  |  |  | 77 | 35 |  | 60
9 | CC1(C)CCCN(C(=O)Cc2ccc(Cl)c(Cl)c2)C1CN1CCCC1 (stereo not drawn) [Example 9, 1-(3,4-dichlorophenyl)acetyl-2-(pyrrolidin-1-yl)methyl-3,3-dimethyl piperidine hydrochloride] | 0.029 | 0.136 |  |  | 86 | 58 |  | 
10 | CC1(C)CCCN(C(=O)Cc2ccc(C(F)(F)F)cc2)C1CN1CCCC1 (stereo not drawn) [Example 10, 1-(4-trifluoromethylphenyl)acetyl-2-(pyrrolidin-1-yl)methyl-3,3-dimethyl piperidine hydrochloride] | 0.023 | 0.116 |  |  | 59 | 57 |  | 
11 | CC1(C)CCC(CN2CCCC2)N(C(=O)Cc2ccc(Cl)c(Cl)c2)C1 (stereo not drawn) [Example 11, 1-(3,4-dichlorophenyl)acetyl-2-(pyrrolidin-1-yl)methyl-5,5-dimethyl piperidine hydrochloride] | 0.605 | 1.16 |  |  | 59 | 57 |  | 
12 | CC1(C)CCCN(C(=O)Cc2ccc3c(c2)CCCC3)C1CN1CCCC1 (stereo not drawn) [Example 12, 1-(5,6,7,8-tetrahydronapht-2-yl)acetyl-2-(pyrrolidin-1-yl) methyl-3,3-dimethyl piperidine hydrochloride] | 0.273 | 1.21 |  |  | 67 | 65 |  | 
13 | CC1(C)CCCN(C(=O)Cc2ccc3c(c2)CCCC3=O)C1CN1CCCC1 (stereo not drawn) [Example 13, 1-[1-oxo-3,4-dihydro-(2H)-napht-6-yl]acetyl-2-(pyrrolidin-1-yl)methyl-3,3-dimethyl piperidine] |  |  | 60 |  |  |  |  | 
14 | CC1(C)CCN(C(=O)Cc2ccc(Cl)c(Cl)c2)C(CN2CCCC2)C1 (stereo not drawn) [Example 14, 1-(3,4-dichlorophenyl)acetyl-2-(pyrrolidin-1-yl)methyl-4,4-dimethyl piperidine hydrochloride] | 0.147 | 0.824 |  |  | 69 | 69 |  | 
15 | CC1(C)CCN(C(=O)Cc2ccc(C(F)(F)F)cc2)C(CN2CCCC2)C1 (stereo not drawn) [Example 15, 1-(4-trifluoromethylphenyl)acetyl-2-(pyrrolidin-1-yl)methyl-4,4-dimethyl piperidine hydrochloride] | 0.242 | 1.8 |  |  | 58 | 63 |  | 
